Experimental data published in patent US20020173491A1, “DAPD combination therapy with inosine monophosphate dehydrogenase inhibitor” (priority 2000, published 2002).
Like-named read-outs stand apart in the source and are kept apart here. Marks after values point to notes of the source that are not given here.

Assays:
[1] = tested on: xxLAI strain of HIV-1; assay: microbe, parasite or virus in culture; type: cell-based; conditions: for effect of addition of 0.25 μM MPA on anti-HIV activity in PBMCs / effect of addition of 20 μM RBV on anti-HIV activity in PBMCs / Fold difference in EC50, 0.01 μM MPA / Fold difference in EC50, 0.1 μM MPA / Fold difference in EC50, 0.25 μM MPA / Fold difference in EC50, 5 μM RBV / Fold difference in EC50, 10 μM RBV / Fold difference in EC50, 20 μM RBV: PBMC; for effect of addition of 0.25 μM MPA on anti-HIV activity in PBMCs / effect of addition of 20 μM RBV on anti-HIV activity in PBMCs: all the concentrations tested; for Fold difference in EC50, 0.01 μM MPA: control vs with 0.01 μM MPA; for Fold difference in EC50, 0.1 μM MPA: control vs with 0.1 μM MPA; for Fold difference in EC50, 0.25 μM MPA: control vs with 0.25 μM MPA; for Fold difference in EC50, 5 μM RBV: control vs with 5 μM RBV; for Fold difference in EC50, 10 μM RBV: control vs with 10 μM RBV; for Fold difference in EC50, 20 μM RBV: control vs with 20 μM RBV
Experimental: In this assay, cell supernatants were incubated on microelisa wells coated with antibodies to HIV-1 p24 core antigen. Subsequently, anti-HIV-1 conjugate labeled with horseradish peroxidase was added. The labeled antibody bound to the solid phase antibody/antigen complexes previously formed. Addition of the tetramethylbenzidine substrate results in blue color formation. The color turned yellow when the reaction is stopped. The plates were then analyzed on a plate reader set at 490 nm. The absorbance is a direct measurement of the amount of HIV-1 produced in each well and a decrease in color indicates decreased viral production. […] PBMC were obtained from HIV-1 negative donors by banding on Ficoll gradients, stimulated with phytohemaglutinin (PHAP) for 48 hours prior to infection with HIV-1, and infected with virus for 4 hours at 37° C. at a MOI of 0.001. […] Plates were incubated for 3 days at 37° C. The concentration of virus in each well was determined using the NEN p24 assay. Using the absorption values of the cell controls as 100% protection and drug free, virus infected cells as 0% protection, a dose response curve is generated by plotting percent protection on the Y axis and drug concentration on the X axis. From this curve, EC50 values were determined.
Compound dilutions and assay conditions were as described above.
MPA was also tested for activity against the xxLAI strain of HIV-1 in PBMCs using a p24 based Elisa assay. In this assay, cell supernatants are incubated on microelisa wells coated with antibodies to HIV-1 p24 core antigen. Subsequently, anti-HIV-1 conjugate labeled with horse radish peroxidase is added. The labeled antibody binds to the solid phase antibody/antigen complexes previously formed. Addition of the tetramethylbenzidine substrate results in blue color formation. The color turns yellow when the reaction is stopped. The plates are then analyzed on a plate reader set at 490 nm. The absorbance is a direct measurement of the amount of HIV-1 produced in each well and a decrease in color indicates decreased viral production. Dilutions of MPA were made in cell culture media in a 96 well plate, the highest concentration of MPA tested was 1 μM. PBMC were obtained from HIV-1 negative donors by banding on Ficoll gradients, stimulated with phytohemaglutinin (PHAP) for 48 hours prior to infection with HIV-1, and infected with virus for 4 hours at 37° C. at a MOI of 0.001. Infected cells were seeded into 96 well plates containing 4-fold serial dilutions of MPA. Plates were incubated for 3 days at 37° C. The concentration of virus in each well was determined using the NEN p24 assay. Using the absorption values of the cell controls as 100% protection and drug free, virus infected cells as 0% protection, a dose response curve is generated by plotting % protection on the Y axis and drug concentration on the X axis. From this curve EC50 values were determined.
Compound dilutions and assay conditions were as described above. The concentrations of MPA used were 1, 0.5, 0.25, 0.1, and 0.01 μM.

[2] = tested on: recombinant virus A98S, F116Y, Q151M, T215Y; assay: MT2/XTT combination assay, recombinant resistant virus; type: cell-based, HIV-1; conditions: for fold difference from WT: A98S; for EC50: Human immunodeficiency virus 1, A98S
Experimental: (§1) Triplicate samples of compound were tested. MT2 cells were infected with xxLAI at a multiplicity of infection (MOI) of 0.03 for 3 hours at 37° C. in 5% CO2. The infected cells were plated at 3.0×10^4/well into a 96 well plated containing drug dilutions and incubated for 5 days at 37° C. in CO2. […] This method has been modified into a susceptibility assay and has been used in a variety of in vitro antiviral tests and is readily adaptable to any system with a lytic virus (Weislow, O. S., et. al. 1989). Using the absorption values of the cell controls as 100% protection and no drug, virus infected cells as 0% protection, a dose response curve is generated by plotting % protection on the Y axis and drug concentration on the X axis. From this curve EC50 values were determined.
(§2) Assays were performed in the MT2 cell line as described above in the XXT sensitivity assay section.
(§3) The restraint strains analyzed included viruses created by site directed mutagenesis, K65R and L74V, as well as a recombinant virus containing mutations at positions 98S, 116Y, 151M and 215Y. The wild type backbone in which these mutants were created, xxLAI, was also analyzed for comparison. The concentrations of DAPD and DXG tested were as described in the above MT2/XTT combination assay section.
(§4) The concentrations of MPA used were 1, 0.5, 0.25, 0.1, and 0.01 μM. Assays were performed in the MT2 cell line as described in section 3.1.
as §3, with “section 4.1. MPA was tested in” for “the above MT2/XTT”, “with DAPD and DXG at a fixed concentration of 0.25 μM.” for “assay section.”

[3] = tested on: HIV-1 mutant K65R; assay: MT2/XTT combination assay, resistant virus K65R; type: cell-based; conditions: for EC50: Human immunodeficiency virus 1, K65R; for fold difference from WT: K65R
Experimental: as §1, §2, §3, §4
as §3, with “section 4.1. MPA was tested in” for “the above MT2/XTT”, “with DAPD and DXG at a fixed concentration of 0.25 μM.” for “assay section.”

[4] = tested on: HIV-1 mutant L74V; assay: MT2/XTT combination assay, resistant virus L74V; type: cell-based; conditions: for EC50: Human immunodeficiency virus 1, L74V; for fold difference from WT: L74V
Experimental: as §1, §2, §3, §4
as §3, with “section 4.1. MPA was tested in” for “the above MT2/XTT”, “with DAPD and DXG at a fixed concentration of 0.25 μM.” for “assay section.”

[5] = Human immunodeficiency virus 1, PBMC, read-out: Mean EC50, Control, PMBCs, no MPA
[6] = Human immunodeficiency virus 1, PBMC, read-out: Mean EC50, Control, PMBCs, no RBV
[7] = read-out: Mean EC50, 0.01 μM MPA, PMBCs, with 0.01 μM MPA
[8] = read-out: Mean EC50, 0.1 μM MPA, PMBCs, with 0.1 μM MPA
[9] = read-out: Mean EC50, 0.25 μM MPA, PMBCs, with 0.25 μM MPA
[10] = read-out: Mean EC50, 1 μM RBV, PMBCs, with 1 μM RBV
[11] = read-out: Mean EC50, 5 μM RBV, PMBCs, with 5 μM RBV
[12] = read-out: Mean EC50, 10 μM RBV, PMBCs, with 10 μM RBV
[13] = read-out: Mean EC50, 20 μM RBV, PMBCs, with 20 μM RBV

| SMILES | EC50 [1, 5] [µM] | EC50 [1, 6] [µM] | effect of addition of 0.25 μM MPA on anti-HIV activity in PBMCs ([1]; with 0.25 μM MPA) | effect of addition of 20 μM RBV on anti-HIV activity in PBMCs ([1]; with 20 μM RBV) | Fold difference in EC50, 0.01 μM MPA [1] [fold] | Fold difference in EC50, 0.1 μM MPA [1] [fold] | Fold difference in EC50, 0.25 μM MPA [1] [fold] | Fold difference in EC50, 5 μM RBV [1] [fold] | Fold difference in EC50, 10 μM RBV [1] [fold] | Fold difference in EC50, 20 μM RBV [1] [fold] | EC50 [1, 7] [µM] | EC50 [1, 8] [µM] | EC50 [1, 9] [µM] | EC50 [1, 10] [µM] | EC50 [1, 11] [µM] | EC50 [1, 12] [µM] | EC50 [1, 13] [µM] | fold difference from WT ([2]; compound alone (Table 4)) | fold difference from WT ([2]; compound alone (Table 10)) [fold] | EC50 ([2]; compound alone (Table 4)) [µM] | further results |
| --- | --- | --- | --- | --- | --- | --- | --- | --- | --- | --- | --- | --- | --- | --- | --- | --- | --- | --- | --- | --- | --- |
| Nc1nc2c(ncn2C2COC(CO)O2)c(=O)[nH]1 (single isomer, unassigned; (-)) [DXG] | 0.14 | 0.15 | completely inhibited HIV replication | completely inhibited HIV replication | 9.3 | 23.3 | >50 | 5.6 | >15 | >15 | 0.015 | 0.006 | < 0.0002 | 0.075 | 0.027 | < 0.01 | < 0.01 | 20 fold | 8.4 | 16 | EC50 ([2]; compound alone (Table 10)): 16 µM; EC50 ([3]; compound alone (Table 4)): 3.9 µM; EC50 ([3]; compound alone (Table 10)): 4 µM; fold difference from WT ([3]; compound alone (Table 4)): 5 fold; fold difference from WT ([3]; compound alone (Table 10)): 5.6 fold; EC50 ([4]; compound alone (Table 4)): 4.5 µM; EC50 ([4]; compound alone (Table 10)): 3.8 µM; fold difference from WT ([4]; compound alone (Table 4)): 5.6 fold; fold difference from WT ([4]; compound alone (Table 10)): 4.2 fold |
| Nc1nc(N)c2ncn(C3COC(CO)O3)c2n1 (single isomer, unassigned; (-)) [DAPD] | 4.1 | 4.5 | completely inhibited HIV replication | completely inhibited HIV replication | 4.6 | 22.8 | >50 | 6.4 | 28 | >150 | 0.9 | 0.18 | < 0.0002 | 2.26 | 0.7 | 0.16 | < 0.03 | (>12) fold | 6 | > 100 | EC50 ([2]; compound alone (Table 10)): 85 µM; EC50 ([3]; compound alone (Table 4)): 43.7 µM; EC50 ([3]; compound alone (Table 10)): 41 µM; fold difference from WT ([3]; compound alone (Table 4)): (5.5)^b fold; fold difference from WT ([3]; compound alone (Table 10)): 6 fold; EC50 ([4]; compound alone (Table 4)): 34 µM; EC50 ([4]; compound alone (Table 10)): 39 µM; fold difference from WT ([4]; compound alone (Table 4)): (4) fold; fold difference from WT ([4]; compound alone (Table 10)): 4.9 fold |
